In ChEMBL document CHEMBL4024726, “An integrated approach towards the discovery of novel non-nucleoside Leishmania major pteridine reductase 1 inhibitors” (Eur J Med Chem, 2017):
The source made the active and inactive calls. No cut-off for these calls is given here.

Columns and labels:
[1] = target: T1, Pteridine reductase 1 (Leishmania major) (UniProt Q01782); assay: Binding affinity to Leishmania major PTR1 BL21(DE3) assessed as change in melting temperature at 50 uM by SYPRO orange dye based RT-PCR analysis
T1 sequence (whole entry): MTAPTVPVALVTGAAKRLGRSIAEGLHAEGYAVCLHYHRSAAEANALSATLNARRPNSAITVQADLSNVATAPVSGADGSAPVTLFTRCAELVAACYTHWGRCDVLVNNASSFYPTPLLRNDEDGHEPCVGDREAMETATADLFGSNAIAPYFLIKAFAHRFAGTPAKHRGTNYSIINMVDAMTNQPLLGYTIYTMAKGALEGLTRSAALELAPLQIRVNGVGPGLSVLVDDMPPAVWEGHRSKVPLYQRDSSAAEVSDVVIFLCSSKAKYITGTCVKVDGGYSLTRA

[2] = target: T1, Pteridine reductase 1 (Leishmania major); assay: Binding affinity to Leishmania major PTR1 BL21(DE3) assessed as change in melting temperature by SYPRO orange dye based RT-PCR analysis
[3] = target: T1, Pteridine reductase 1 (Leishmania major); assay: Noncompetitive inhibition of Leishmania major PTR1 at 1 mM in presence of saturating concentration of biopterin and varying levels of NADPH by spectrofluorimetric method
[4] = target: T1, Pteridine reductase 1 (Leishmania major); assay: Noncompetitive inhibition of Leishmania major PTR1 at 1 mM in presence of varying levels of biopterin and constant NADPH level by spectrofluorimetric method
[5] = target: T1, Pteridine reductase 1 (Leishmania major); assay: Competitive inhibition of Leishmania major PTR1 assessed as decrease in thermal shift stabilization at 1 mM in presence of varying levels of biopterin and constant NADPH level by spectrofluorimetric method
[6] = target: T1, Pteridine reductase 1 (Leishmania major); assay: Competitive inhibition of Leishmania major PTR1 assessed as decrease in thermal shift stabilization at 1 mM in presence of saturating concentration of biopterin and varying levels of NADPH by spectrofluorimetric method
[7] = target: T1, Pteridine reductase 1 (Leishmania major); assay: Inhibition of Leishmania major PTR1 at 50 uM using biopterin as substrate and NADPH as cofactor by spectrofluorimetric method relative to control
Pteridine reductase 1 = target: T2, Pteridine reductase 1 (Leishmania major, UniProt Q01782); assay: Inhibition of Leishmania major PTR1 using biopterin as substrate and NADPH as cofactor by spectrofluorimetric method
T2 sequence (Q01782 whole entry): T1 sequence (whole entry)

SMILES	ΔTm [1] [°C]	Activity [2]	inhibition [3]	inhibition [4]	inhibition [5]	inhibition [6]	inhibition [7] [%]	IC50 (Pteridine reductase 1) [µM]
CC(N(C)Cc1nc2ccccc2c(=O)[nH]1)C(C)(C)C (stereo not given)	0.91	Dose-dependent effect	Active	Active				
Cc1sc2ncnc(N/N=C/c3ccccc3)c2c1C	1.02	Dose-dependent effect			Active	Active	> 50	32.3
